Key:
[1] = biological target: T1, full-length recombinant HsNMT1 enzyme (Homo sapiens, UniProt P30419); assay: fluorogenic NMT inhibition assay; type: biochemical
T1 construct: 18.9 nM full-length recombinant HsNMT1 enzyme was incubated; purchased Fitzgerald Industries International 80R-4067
T1 sequence (P30419 1-496): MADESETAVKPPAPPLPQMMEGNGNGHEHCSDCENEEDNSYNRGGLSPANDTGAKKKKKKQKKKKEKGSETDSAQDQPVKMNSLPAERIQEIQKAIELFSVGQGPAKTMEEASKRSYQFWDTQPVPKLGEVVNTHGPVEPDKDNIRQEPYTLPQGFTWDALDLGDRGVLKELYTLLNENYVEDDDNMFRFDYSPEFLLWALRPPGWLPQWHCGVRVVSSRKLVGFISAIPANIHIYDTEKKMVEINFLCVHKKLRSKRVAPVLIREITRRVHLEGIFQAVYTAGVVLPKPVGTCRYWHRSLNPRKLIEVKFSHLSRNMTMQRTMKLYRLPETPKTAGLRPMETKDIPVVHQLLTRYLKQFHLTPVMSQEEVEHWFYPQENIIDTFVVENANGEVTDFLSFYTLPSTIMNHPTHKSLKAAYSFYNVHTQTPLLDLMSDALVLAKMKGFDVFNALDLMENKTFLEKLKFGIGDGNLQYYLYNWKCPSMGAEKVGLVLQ
Method: Materials and reagents. […] The ZINC IDs and the structures of the compounds are included in Table S1. […] CPM (7-Diethylamino-3- (4-maleimidophenyl)-4-methylcoumarin) and Myristoyl-CoA were purchased from Cayman Chemicals, and the buffer components from Merck (Kenilworth, NJ, USA).
NMT inhibition assay. IC50 values were determined using a fluorogenic NMT assay, as previously described. The assay detects Coenzyme A (CoA), which is released as a byproduct of the enzymatic reaction. […] The reactions were performed in reaction buffer (20 mM potassium phosphate, pH 8.0, 0.5 mM EDTA, 0.1% (v/v) Triton® X-100) in 44 µL volume in a 96-well black plate. To eliminate the background fluorescence, reactions were also performed in the absence of the NMT1 enzyme for each concentration of the ligands. […] Fluorescence was measured at an excitation wavelength of 380 nm and an emission wavelength of 470 nm with a CLARIOstar fluorescent reader (BMG LABTECH GmbH, Ortenberg, Germany). The fluorescent values of samples obtained in the absence of NMT1 were subtracted from the fluorescent signal of samples performed in the presence of NMT1 to eliminate the background signal. The subtracted values were plotted in GraphPad Prism using a log (inhibitor concentration) vs. normalized response nonlinear fit to generate inhibitory curves and determine IC50 values.

NMT = conditions: cited from earlier work; for IC50: fragments as single agents

SMILES: Cc1nc(Nc2cnn(C3CCNCC3)c2)nc2c1N(C)C(=O)c1cc3ccccc3cc1N2C [compound 11]
- IC50 ([1]; 18.9 nM HsNMT1, 4 µM Myristoyl-CoA, 4 µM substrate peptide, highest concentration 100 µM): > 100 µM
- % Inhibition ([1]; at concentration of the compounds 100 µM): 0%
- Fold Potency ([1]; ratio of IC50 of each compound to IC50 of IMP-1088): >13,158

SMILES: CCOC(=O)c1c(C)nc2ccccc2c1C [IMP-358]
- IC50 (NMT): > 100 µM

SMILES: Cc1cc(F)ccc1-c1ccc2[nH]nc(CN(C)C)c2c1 [IMP-72]
- IC50 (NMT): 20 µM
- fold reduction of IC50 of IMP-72 by IMP-358 (NMT; in the presence of 100 µM IMP-358): 308 fold
